Our source for the EC50 and Kd values is doi:10.1101/2022.10.28.514248v1 (biorxiv, 2022).

In assay [1] the target is T1, GDAP1ΔTM (Mus musculus, UniProt O88741).
T1 sequence (O88741 1-322): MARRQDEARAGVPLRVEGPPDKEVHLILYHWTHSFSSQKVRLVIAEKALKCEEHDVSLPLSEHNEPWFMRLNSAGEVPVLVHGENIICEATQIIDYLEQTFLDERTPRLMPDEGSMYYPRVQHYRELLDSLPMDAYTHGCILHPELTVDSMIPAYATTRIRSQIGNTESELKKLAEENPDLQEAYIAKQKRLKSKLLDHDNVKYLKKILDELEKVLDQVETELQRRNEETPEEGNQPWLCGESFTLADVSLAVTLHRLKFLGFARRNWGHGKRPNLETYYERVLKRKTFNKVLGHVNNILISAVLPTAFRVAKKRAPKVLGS
Kind of assay: anti-4HNE Western blot of Michael adduct formation, Hill fit. The assay is classed as biochemical.

The target of assay [2] is T1, GDAP1ΔTM. Kind of assay: native PAGE titration, band quantification, Hill fit. The assay is classed as binding.
Assay [3] has as its target T2, GDAP1ΔTM (Mus musculus, UniProt O88741, T157P).
T2 sequence (O88741 1-322 T157P): T1 sequence (O88741 1-322) with T157P
The description is as above. The assay is classed as binding.

In assay [4] the target is T1, GDAP1ΔTM. Kind of assay: fluorescence polarization, N-terminally fluorescein-labelled protein. The class given is binding.

Residue numbers refer to the chain shown, from its start.

`CCCCCC(O)/C=C/C=O` (stereo not shown) [4-hydroxynonenal] displayed an EC50 at GDAP1ΔTM [1] of 241 ± 52 µM. Moreover, the values for the Kd on GDAP1ΔTM [2] and on GDAP1ΔTM [3] were 398 µM and 1330 ± 259 µM, respectively.

In turn, `O=C(O)CCCCCCCCCCCCCCC(=O)O` [thapsic acid] displayed a Kd on GDAP1ΔTM [4] of around 34 µM.
